In ChEMBL document CHEMBL5608141, “Identification of compartment-specific drug sensitivities in CRC organoid-stroma co-cultures” (2024):

Key:
Format in all cases: functional, Homo sapiens
Parameters in all cases: dose or concentration left out as unconfirmed
Colon cancer organoid [1] = test: Identification of compartment-specific drug sensitivities in O06 CRC organoid-stroma F06 CAF co-cultures. Organoid is transduced with Lucferase2-P2A-EGFP lentivirus, fibroblast with Renilla-dsRed lentivirus. Dual-Glo Luciferase assay is used to report viability data.
Colon cancer organoid [2] = test: Identification of compartment-specific drug sensitivities in O14 CRC organoid-stroma F14 CAF co-cultures. Organoid is transduced with Lucferase2-P2A-EGFP lentivirus, fibroblast with Renilla-dsRed lentivirus. Dual-Glo Luciferase assay is used to report viability data.
Colon cancer organoid [3] = test: Identification of compartment-specific drug sensitivities in O20 CRC organoid-stroma F20 CAF co-cultures. Organoid is transduced with Lucferase2-P2A-EGFP lentivirus, fibroblast with Renilla-dsRed lentivirus. Dual-Glo Luciferase assay is used to report viability data.
[4] = Transduced with Lucferase2-P2A-EGFP lentivirus
[5] = Transduced with Renilla-dsRed lentivirus

SMILES	Cell Viability (Colon cancer organoid [1]; [4])	Cell Viability (Colon cancer organoid [1]; [5])	Cell Viability (Colon cancer organoid [2]; [4])	Cell Viability (Colon cancer organoid [2]; [5])	Cell Viability (Colon cancer organoid [3]; [4])	Cell Viability (Colon cancer organoid [3]; [5])
CCNC(=O)c1cc2c(-c3cc(C(C)(C)O)ccc3Oc3c(C)cc(F)cc3C)cn(C)c(=O)c2[nH]1 [ABBV-744]	91.6049%	287.135%	77.9517%	194.681%	58.4777%	215.224%
CC#CC(=O)N1CCC[C@H]1c1nc(-c2ccc(C(=O)Nc3ccccn3)cc2)c2c(N)nccn12 [ACALABRUTINIB]	96.562%	83.4698%	75.641%	83.8473%	96.3915%	99.9657%
CN(C)C/C=C/C(=O)Nc1cc2c(Nc3ccc(F)c(Cl)c3)ncnc2cc1O[C@H]1CCOC1.O=C(O)/C=C\C(=O)O.O=C(O)/C=C\C(=O)O [AFATINIB DIMALEATE]	26.678%	56.3894%	29.0273%	34.3509%	37.8231%	73.123%
COc1cc(Nc2ncc3c(n2)-c2ccc(Cl)cc2C(c2c(F)cccc2OC)=NC3)ccc1C(=O)O [ALISERTIB]	7.435%	169.322%	16.3683%	117.657%	6.089%	322.747%
Cc1nc(NC(=O)N2CCC[C@H]2C(N)=O)sc1-c1ccnc(C(C)(C)C(F)(F)F)c1 [ALPELISIB]	74.6278%	68.5217%	47.6603%	61.6268%	70.8375%	99.8659%
CC(C)[C@H](C(=O)Nc1ccc(C(=O)NO)cc1)c1ccccc1 [AR-42]	8.004%	640.047%	24.8523%	220.952%	13.9942%	352.85%
Cc1cnc(-c2cc(Cl)ccc2F)cc1-n1c(=O)n(CC(N)=O)c2ccccc21 [Al11]	79.8154%	66.9379%	90.2433%	100.795%	100.628%	109.542%
Cc1ccccc1Oc1cc(-n2c(=O)cc(C(F)(F)F)[nH]c2=O)c2ccccc2c1Cl [BAY-069]	128.819%	153.89%	126.47%	121.899%	84.1162%	119.466%
Cn1c(-c2csc(C3CCN(CC4=NC5N=CC=CC5N4)CC3)n2)nc2ccccc21 (stereo not given) [BAY-070]	29.934%	49.5381%	72.3778%	60.078%	42.0794%	84.0468%
NS(=O)(=O)c1cc(NC(=O)C2(c3ccccc3Cl)CC2)ccc1Oc1cccc(Cl)c1 [BAY-207]	102.145%	97.9535%	120.584%	143.533%	177.814%	111.752%
CNCc1ccccc1-c1csc([C@@H](C)Nc2nc(C)nc3cc(OC)c(OC)cc23)c1 [BAY-293]	41.2905%	141.656%	65.4303%	97.5193%	78.2703%	145.24%
Cc1cc(NC(=O)c2cccc(S(F)(F)(F)(F)F)c2)cc(-n2ccn3nc(-c4cccnc4)cc23)c1 [BAY-309]	58.4282%	47.7134%	149.605%	88.4633%	122.672%	127.793%
O=C(N1CCS(=O)(=O)CC1)N1C[C@H](c2ccc(OC(F)(F)F)cc2)C[C@H](c2nc(C3CC3)no2)C1 [BAY-386]	109.098%	172.496%	96.4412%	110.483%	61.9652%	114.29%
Cc1c(N2CCNCC2)nc2ccc(Br)cc2c1C(=O)NC[C@H](CCC(=O)O)c1ccccc1Cl [BAY-403]	78.4474%	70.4581%	117.744%	98.3874%	121.312%	79.2483%
CN(C)c1ncnc(-c2ccc3nc(Nc4cc(CN5CCN(C(=O)CC(F)(F)F)CC5)ccn4)[nH]c3c2)c1Cl [BAY-440]	110.52%	104.43%	161.186%	109.54%	123.006%	109.622%
